Assay results reported in patent US4738979A, “α2 -blocking derivatives of imidazole” (G. D. Searle & Co., priority 1985, dated 1988).

Assays:
[1] = system: bicuculline-induced tonic extension in mice; assay: protection against bicuculline-induced tonic extension in mice; format: in vivo; conditions: Mus musculus, iv, 3 hours prior to bicuculline 0.7 mg/kg i.v., read-out: Anticonvulsive effect (versus Bicuculline) (% Protection)
Protocol: (§1) In the second study the anti-convulsant effect of the compounds of the present invention was examined in two seizure models; bicuculline-induced tonic extension in mice and 3-mercaptopropionic acid (3-MPA)-induced tonic extension in mice.
(§2) In the bicuculline study, the ability of the compounds of the present invention to protect against tonic extension (involving rigidity) was evaluated as follows. Each test compound was administered to a group of ten mice at a dose of 10 mg/kg, 3 hours prior to the i.v. administration of bicuculline (0.7 mg/kg). Anticonvulsant activity in this test is expressed as percentage of animals tested. The results are given in Table II, column 6, and indicate that several compounds display significant anticonvulsive activity in this test. The anticonvulsant effect of the compounds has also been tested with respect to the tonic extension induced by 3-mercaptopropionic acid (120 mg/kg subcutaneously) in mice.

[2] = system: α2 adrenergic receptors of the central nervous system; assay: inhibition of the antihypertensive action of clonidine in spontaneously hypertensive rats (SHR); format: in vivo, rat; conditions: 1 mg/kg p.o., clonidine 50 μg/kg s.c.
Protocol: In the first study, carried out upon unanaesthetized spontaneously hypertensive rats (SHR rats), the ability of the compounds of the present invention to inhibit the antihypertensive action of clonidine was determined.
The antihypertensive activity of clonidine results from an interaction with α2 adrenergic receptors of the central nervous system, i.e., central antihypertensive actions.
In this test, two groups of SHR rats are utilized as follows. In the first group, prior to subcutaneous administration of clonidine (50 μg/kg), the SHR rats are treated with the compound to be tested (1 mg/kg p.o.) dissolved in a saline vehicle. The second group (control group) of SHR rats are treated with the saline vehicle only, prior to subcutaneous administration of clonidine.
The arterial pressure is measured in the region of the median coccygeal artery according to the method of J. Roba, A. F. DeSchaepdrijver, Exp. Anim., 4, 147-162 (1971).
The results of this assay summarized in Table II, column 5, are expressed as a percentage of inhibition of the effect of clonidine.

α2 -adrenergic receptors [3] = target: T1, α2 -adrenergic receptors (Rattus norvegicus, UniProt P22909); assay: binding to α2-adrenergic receptors on rat brain homogenates (3H-p. aminoclonidine); conditions: 10^-7 M; for inhibition at 0.1 µM: rat brain homogenates, 0.7 nM 3H-p. aminoclonidine, read-out: % Inhibition of the Specific Binding at 10^-7 M for α2 Recep.; for affinity for α2 receptors (in words): in vitro binding assay
T1 construct: from tissue; host or cells: rat brain homogenates
T1 sequence (P22909 1-465): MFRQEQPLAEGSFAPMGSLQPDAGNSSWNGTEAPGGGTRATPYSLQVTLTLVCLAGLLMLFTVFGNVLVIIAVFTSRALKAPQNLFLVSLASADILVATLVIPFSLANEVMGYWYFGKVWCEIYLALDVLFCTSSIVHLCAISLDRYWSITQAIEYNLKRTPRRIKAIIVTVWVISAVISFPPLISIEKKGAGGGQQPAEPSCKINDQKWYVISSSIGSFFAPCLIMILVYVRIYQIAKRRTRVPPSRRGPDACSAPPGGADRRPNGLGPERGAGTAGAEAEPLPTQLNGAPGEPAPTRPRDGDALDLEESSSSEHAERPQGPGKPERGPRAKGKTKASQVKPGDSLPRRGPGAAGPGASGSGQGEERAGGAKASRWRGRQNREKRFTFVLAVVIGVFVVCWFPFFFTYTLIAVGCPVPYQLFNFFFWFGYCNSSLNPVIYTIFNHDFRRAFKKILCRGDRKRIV
Protocol: (§3) The activity of the compounds according to the invention with respect to binding of the α-adrenergic receptors was determined in vitro according to a method deriving from the works of B. R. Rouot et al., Life Sci., 25, 769 (1979) and of D. U'Prichard et al., Mol. Pharmacol., 13, 454 (1977). This method consists in measuring the binding to the receptor on rat brain homogenates, by marking by means of a specific tritriated ligand placed in competition with the product to be tested.
(§4) In the presenct case the binding to the α1 -adrenergic receptors was measured by means of 1.6 nM of ^3 H-WB 4101 and the binding to the α2 -adrenergic receptors by means of 0.7 nM of ^3 H-p. aminoclonidine, the non-specific binding being determined by 1,000 nM of phentolamine. The results are given in Table II, column 3, and are expressed in terms of percentage of inhibition of the specific binding of 10^-7 molar compound concentration.
(§5) (2) The specific binding is the total binding less the nonspecific
(§6) binding. The total binding is the binding in the absence of nonradioactiv
(§7) drug. The nonspecific binding is the binding in the presence of 1,000 nM
(§8) of phentolamine. The products of the invention are tested at a
(§9) concentration of 10^-7 molar.

α1 -adrenergic receptors = assay: binding to α1-adrenergic receptors on rat brain homogenates (3H-WB 4101); conditions: 1.6 nM 3H-WB 4101
Protocol: as §3, §4, §5, §6, §7, §8, §9

[4] = system: 3-mercaptopropionic acid (3-MPA)-induced tonic extension in mice; assay: protection against 3-mercaptopropionic acid (3-MPA)-induced tonic extension in mice; format: in vivo; conditions: 100 mg/kg orally, 30 minutes prior to 3-MPA (120 mg/kg s.c.)
Protocol: as §1, §2
In the 3-MPA assay, the compounds of the present invention are administered orally at a dose of 100 mg/kg 30 minutes prior to administration of 3-MPA. Each compound was tested on a group of 5 mice; if more than 1 mouse was protected, a second group of 5 mice was tested.

α2 -adrenergic receptors [5] = target: T2, α2 -adrenergic receptors (Cavia porcellus, UniProt Q60474); assay: α2 antagonist and α2 agonist activity in isolated guinea pig ileum (clonidine)
T2 construct: from tissue; host or cells: isolated guinea pig ileum
T2 sequence (Q60474 1-464): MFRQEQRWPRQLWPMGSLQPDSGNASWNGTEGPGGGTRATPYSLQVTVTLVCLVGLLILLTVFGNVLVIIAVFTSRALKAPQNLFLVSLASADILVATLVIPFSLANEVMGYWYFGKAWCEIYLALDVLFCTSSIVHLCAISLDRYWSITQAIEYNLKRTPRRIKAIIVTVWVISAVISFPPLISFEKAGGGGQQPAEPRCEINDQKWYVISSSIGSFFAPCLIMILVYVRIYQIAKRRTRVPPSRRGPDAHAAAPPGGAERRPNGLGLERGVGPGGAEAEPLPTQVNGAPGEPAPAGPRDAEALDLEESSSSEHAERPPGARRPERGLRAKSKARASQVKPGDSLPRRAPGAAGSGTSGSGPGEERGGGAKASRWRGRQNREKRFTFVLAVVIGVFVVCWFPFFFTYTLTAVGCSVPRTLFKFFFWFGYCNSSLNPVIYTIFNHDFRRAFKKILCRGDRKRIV
Protocol: The α2 antagonist and α2 agonist activity of the compounds according to the invention was determined upon isolated organs according to a model described by G. M. Drews, Br. J. Pharmaco., 64, 293-300 (1978).
This model is based upon the principle that the stimulation of the cholinergic nervous transmissions of the guinea pig ileum causes the liberation of acetyl choline, which in turn causes contractions of the ileum.
The stimulation of the α2 -adrenergic receptors inhibits the activity of the cholinergic nerve and consequently reduces all response resulting from a timulation of the latter. Thus the contractions of the ileum induced by electric stimulation of the tissue are inhibited by clonidine, an α2 agonist, in proportion to the dose. This inhibition is specifically displaced by the α2 antagonists and not by the α1 antagonists.
The method utilized can be summarized as follows: three dose-response curves to clonidine are established at an interval of 60 minutes. Two concentrations of the product to be tested are added successively 10 minutes before the realization of the second and third clonidine curves. Next, after washing, a dose-response curve is established with the product to be tested.
The dose-response curves are calculated as a percentage of the maximum inhibition obtained for the first curve. In this system the products having an α2 antagonist activity displace the dose-response curve to clonidine. The α2 antagonist activity, expressed in pA2 value, shown in column 4, is calculated according to J. M. Van Rossum, Arch. Int. Pharmacodyn., 143, 299-300 (1963).
A reduction of the contractions induced by the tested product alone indicates an α2 agonist effect. This activity is expressed in--log ED50 (the--logarithm of the concentration of the product giving 50% of the maximum inhibition obtained with clonidine).
The higher the pA2 value, the higher the α2 antagonist activity; the higher the--log ED50 value (i.e., the pA2 agonist activity), the higher the α2 agonist activity.

[6] = system: peripheral vascular α2 receptors; assay: inhibition of the pressor effect of BHT 920 in pithed rats; format: in vivo, rat; conditions: 1 mg/kg i.v., BHT 920 30 μg/kg i.v.
Protocol: The α2 antagonist activity of the compounds is evaluated by the inhibition of the pressor effect (blood pressure elevation), of a specific α2 agonist agent, 4H-Thiazolo[4,5-b]azetin-2-amine, 5,6,7,8-tetrahydro-6-(2-propenyl)-, dihydrochloride, designated as BHT 920 at a concentration of 30 μg/kg i.v.) according to a method described by J. C. Van Meel et al., J. Pharmacol. Exp. Ther., 219, 760-767 (1981).
The compound to be tested is administered at 1 mg/kg i.v. The ability of the compounds tested to antagonize the pressor effects of BHT 920 is determined and expressed as percentage of inhibition. Any direct hypertensive (=α2 agonist) activity of the compounds under test can likewise be detected.

[7] = acute toxicity after oral administration to mice (LD50); conditions: mouse, in vivo, 15 days mortality
Protocol: The acute toxicity of the compounds of the present invention was studied after oral administration to mice. The products to be tested, suspended in a 1% tragacanth gum mucilage, were administered by means of an intragastric probe to groups of three male mice which had fasted since the preceding day. The doses tested are a function of the effect observed and can vary from 3,000 to 3 mg/kg or less. The mortality was recorded for 15 days. The lethal dose for 50% of the animals (LD50) was calculated according to the method of J. Litchfield and F. Wilcoxon, J. Pharmacol. Exp. Ther., 96, 99 (1949) and expressed in mg/kg. The effect of the products on the behaviour of the animals is observed until 5 to 6 hours after the treatment indicated above and after 24 hours, using a method derived from that of S. Irwin, described by R. A. Turner, Screening Methods in Pharmacology, Chapter 3, pages 22-34, Academic Press, 1965. If anomalies are noted, the observation is prolonged and smaller doses are tested.

Compound | responders at 10 mg/kg [1] | α2 Antagonist (% Inhibition of the Antihypertension of Clonidine) [2] | inhibition at 0.1 µM (α2 -adrenergic receptors [3]) | % Inhibition of the Specific Binding at 10^-7 M for α1 Recep. (α1 -adrenergic receptors) | anticonvulsant effect versus 3-MPA (in words) [4] | EC50 (α2 -adrenergic receptors [5]; 50% of maximum inhibition obtained with clonidine, read-out: α2 Agonist Activity (-log ED50) (converted)) | Kb (α2 -adrenergic receptors [5]; versus clonidine, read-out: α2 Antagonist Activity (pA2) (converted)) | α2 antagonist activity, inhibition of pressor effect of BHT 920 (in words) [6] | LD50 at 360 h [7] | affinity for α2 receptors (in words) (α2 -adrenergic receptors [3])
CC(O)(c1c[nH]cn1)C(c1ccccc1)c1ccccc1 (centres unmarked) [Compound 3] | 10% | 67% | 10% | 0% | potent anticonvulsant effect |  |  |  |  | 
Cc1[nH]cnc1CC(c1ccccc1)c1ccccc1 [Compound 7, 4(5)-(2,2-diphenylethyl)-5(4)-methyl imidazole] | 20% | 82% | 23% | 12% |  | 2000 nM | 50.1 nM | very active as α2 antagonist agents |  | 
CC(Cc1c[nH]cn1)(c1ccccc1)c1ccccc1 [Compound 10, 4(5)-[1-(2,2-diphenyl)-propyl]imidazole] | 27% | 46% | 6% | 0% | potent anticonvulsant effect |  |  |  |  | 
Cc1ccc(C(Cc2c[nH]cn2)c2ccccc2)cc1C (centres unmarked) [Compound 22] | 20% | 57% | 22% | 4% |  |  |  | very active as α2 antagonist agents | 155 mg/kg | 
COc1ccc(C(Cc2c[nH]cn2)c2ccc(OC)cc2)cc1 [Compound 23] | 10% | 40% | 20% | 0% |  |  |  | very active as α2 antagonist agents |  | 
Cc1ccc(C(Cc2c[nH]cn2)c2ccccc2)c(C)c1 (centres unmarked) [Compound 24] | 0% | 93% | 34% | 0% | potent anticonvulsant effect |  |  |  |  | 
Fc1cccc(F)c1C(Cc1c[nH]cn1)c1ccccc1 (centres unmarked) [Compound 27, 4(5)-{[2-(2-fluorophenyl)-2-(6'-fluorophenyl)]ethyl}imidazole] |  |  | 86% | 14% | potent anticonvulsant effect |  |  |  | 173 mg/kg | high affinity
Fc1ccccc1C(Cc1c[nH]cn1)c1ccccc1 (centres unmarked) [Compound 28, 4(5)-{[2-(2-fluorophenyl)-2-phenyl]ethyl}imidazole] |  |  | 95% | 8% | potent anticonvulsant effect |  |  |  | 94 mg/kg | high affinity
c1ccc(-c2ccc(C(Cc3c[nH]cn3)c3ccccc3)cc2)cc1 (centres unmarked) [Compound 29, 4(5)-{[2-(4-biphenyl)-2-phenyl]ethyl}imidazole] |  |  | 23% | 15% | potent anticonvulsant effect |  |  |  | > 300 mg/kg | 
